Experiment: recombinant UMI read abundance after kanamycin selection (control-corrected) (log10(CPM+1)); higher = more efficient recombination; extreme values may be limits of the assay; sequences stand for … in AGTGCAGAGAAAATCGGCCAGTTTTCTCTGCCTGCAGTCCGCATGCCGTGGGACCCCTTGGGTTCTAACCTGTTGCCTAGATTTATGCAGCGGACTGCCTTTCTCCCAAAGTGATAAACCGG…AGGTTGGTTTCACT; site = the 11-nt donor
In short: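 Sequenced counts of recombinant UMIs were turned into CPM, averaged across replicates and scaled with control-derived factors. The reported figure is log10(CPM+1). Those UMIs, each 12 nt long, tagged donor and donor-binding-loop pairs on a plasmid with a promoterless kanamycin gene, screened as a pool in Escherichia coli with IPTG (0.07 mM) plus kanamycin or without selection.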
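Note: IS621 bridge recombinase in Escherichia coli cells against a fixed T5 target plasmid.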

| Sequence | recombinant UMI read abundance (log10) |
| --- | --- |
| TTAGTATCATGGACCGGTTTTCCCGGTAATCCGTATTTGCA (site TTAGTATCTTG) | 1.42 |
| CGGGAATCATGGACCGGTTTTCCCGGTAATCCGTATTTGCC (site CGGGAATCTGG) | 2.51 |
| GGCCGTACATGGACCGGTTTTCCCGGTAATCCGTATTTGCT (site GGCCGTACTAG) | 1.83 |
| CTGCTACCATGGACCGGTTTTCCCGGTAATCCGTATTTGGG (site CTGCTACCTCC) | 0.0335 |
| GTTAGCACATGGACCGGTTTTCCCGGTAATCCGTATTTGGC (site GTTAGCACTGC) | 2.11 |
| CCGTTATCATGGACCGGTTTTCCCGGTAATCCGTATTTGTG (site CCGTTATCTCA) | 0.662 |
| GTGGAGGCATGGACCGGTTTTCCCGGTAATCCGTATTTGTG (site GTGGAGACTCA) | 0.959 |
| CGTGTGTCATGGACCGGTTTTCCCGGTAATCCGTATTTGGA (site CGTGTGTCTTC) | 1.86 |
| GTATGCACATGGACCGGTTTTCCCGGTAATCCGTATTTGTT (site GTATGCACTAA) | 1.32 |
| CGGTTATCATGGACCGGTTTTCCCGGTAATCCGTATTTGCT (site CGATCATCTAG) | 0 |
| CGTTATACATGGACCGGTTTTCCCGGTAATCCGTATTTGAG (site CGTTAGACTCT) | 0.0101 |
| ATTGAGACATGGACCGGTTTTCCCGGTAATCCGTATTTGGT (site ATAGAGACTAC) | 1.78 |
| GTATGCACATGGACCGGTTTTCCCGGTAATCCGTATTTGTC (site GTATGCACTGA) | 3.13 |
| TATAATACATGGACCGGTTTTCCCGGTAATCCGTATTTGCA (site TACAATACTTG) | 0.35 |
| GTTGTTCCATGGACCGGTTTTCCCGGTAATCCGTATTTGGT (site CTTGTTCCTAC) | 0.00343 |
| CAAGCAGCATGGACCGGTTTTCCCGGTAATCCGTATTTGCT (site CAAGCACCTAG) | 0 |
| TAGCTAGCATGGACCGGTTTTCCCGGTAATCCGTATTTGGA (site TAGCTAGCTTA) | 0.347 |
| TTGCCGGCATGGACCGGTTTTCCCGGTAATCCGTATTTGGC (site TGGCCGGCTGC) | 0 |
| CGGAATCCATGGACCGGTTTTCCCGGTAATCCGTATTTGAC (site CGGAATCCTAA) | 0.003 |
| GATTTATCATGGACCGGTTTTCCCGGTAATCCGTATTTGTC (site GATTTATCTGA) | 0.525 |
| CTGCTTCCATGGACCGGTTTTCCCGGTAATCCGTATTTGGT (site CTGCTTCCTAC) | 0.0707 |
| ATTGATACATGGACCGGTTTTCCCGGTAATCCGTATTTGGT (site ATTGAAACTAC) | 0.445 |
| GTGATTCCATGGACCGGTTTTCCCGGTAATCCGTATTTGGA (site GTGATTCCTTC) | 0.421 |
| CTAGGATCATGGACCGGTTTTCCCGGTAATCCGTATTTGAT (site CTAGGATCTAT) | 1.95 |
| TGTTTGGCATGGACCGGTTTTCCCGGTAATCCGTATTTGCT (site AGTTTGGCTAG) | 0 |

| Sequence | recombinant UMI read abundance (log10) |
| --- | --- |
| CTCCGGCCATGGACCGGTTTTCCCGGTAATCCGTATTTGCT (site CTCCGGCCTAG) | 0.589 |
| AGCATAGCATGGACCGGTTTTCCCGGTAATCCGTATTTGTT (site AGCCTAGCTAA) | 0.0149 |
| TCACTATCATGGACCGGTTTTCCCGGTAATCCGTATTTGCA (site ACAGTATCTTG) | 0 |
| TACAGTCCATGGACCGGTTTTCCCGGTAATCCGTATTTGTA (site TATAGTCCTTA) | 0.00977 |
| CGTGGAACATGGACCGGTTTTCCCGGTAATCCGTATTTGTT (site CCTGGAACTAA) | 0.0032 |
| GGCAAACCATGGACCGGTTTTCCCGGTAATCCGTATTTGAA (site GGCAAACCTTT) | 0 |
| GCCTTCTCATGGACCGGTTTTCCCGGTAATCCGTATTTGGG (site ACCTTCTCTCC) | 0.00678 |
| GTGATTCCATGGACCGGTTTTCCCGGTAATCCGTATTTGCA (site GTGATTCCTTG) | 1.09 |
| ATTGCAACATGGACCGGTTTTCCCGGTAATCCGTATTTGGG (site ATTGCAACTCC) | 0.0185 |
| AGCCCATCATGGACCGGTTTTCCCGGTAATCCGTATTTGCT (site AGCCCATCTAG) | 1.83 |
| AATGTGTCATGGACCGGTTTTCCCGGTAATCCGTATTTGCC (site AATGTGTCTGA) | 0 |
| GAAGATGCATGGACCGGTTTTCCCGGTAATCCGTATTTGTT (site GAAGATGCTAA) | 2.81 |
| ACAATATCATGGACCGGTTTTCCCGGTAATCCGTATTTGGA (site ACAGTATCTTG) | 0 |
| ATTCGAGCATGGACCGGTTTTCCCGGTAATCCGTATTTGAA (site ATTCGAGCTTT) | 1.31 |
| GCTAACTCATGGACCGGTTTTCCCGGTAATCCGTATTTGGG (site GCTAACTCTCC) | 0.0314 |
| ACGACGCCATGGACCGGTTTTCCCGGTAATCCGTATTTGCT (site ACGACGCCTAG) | 0 |
| ACACATCCATGGACCGGTTTTCCCGGTAATCCGTATTTGTC (site ACACATCCTGT) | 0.239 |
| CAGCGTGCATGGACCGGTTTTCCCGGTAATCCGTATTTGCT (site CAGCGTGCTAG) | 2.76 |
| CTACTATCATGGACCGGTTTTCCCGGTAATCCGTATTTGGA (site CTACTATCTTC) | 2.71 |
| TTAGGTGCATGGACCGGTTTTCCCGGTAATCCGTATTTGTG (site TTAGCTGCTCA) | 0.0453 |
| GAAAAACCATGGACCGGTTTTCCCGGTAATCCGTATTTGGT (site GACAAACCTAC) | 0 |
| ATCTCTACATGGACCGGTTTTCCCGGTAATCCGTATTTGAC (site ATCTTTACTGT) | 0 |
| CGGAATCCATGGACCGGTTTTCCCGGTAATCCGTATTTGAT (site CGGAATCCTAT) | 0.646 |
| GGTTACTCATGGACCGGTTTTCCCGGTAATCCGTATTTGGA (site GGTTACTCTTC) | 1.18 |
| GAATGGCCATGGACCGGTTTTCCCGGTAATCCGTATTTGTA (site GAATGGCCTTT) | 0.0207 |

| Sequence | recombinant UMI read abundance (log10) |
| --- | --- |
| AGGGTCCCATGGACCGGTTTTCCCGGTAATCCGTATTTGTC (site AGGGTCCCTGA) | 0.534 |
| CAAGCAGCATGGACCGGTTTTCCCGGTAATCCGTATTTGCT (site CAAGCAGCTAG) | 1.84 |
| GACTCATCATGGACCGGTTTTCCCGGTAATCCGTATTTGCC (site GACTCATCTGG) | 2.65 |
| CGGAATGCATGGACCGGTTTTCCCGGTAATCCGTATTTGGT (site CGGAATGCTAC) | 2.27 |
| AAGACCGCATGGACCGGTTTTCCCGGTAATCCGTATTTGCC (site AAGACCGCTGG) | 2.73 |
| TCAGAGACATGGACCGGTTTTCCCGGTAATCCGTATTTGCG (site TCTGAGACTCG) | 0.346 |
| CCGTTTCCATGGACCGGTTTTCCCGGTAATCCGTATTTGAC (site CCGTTTCCTGT) | 0 |
| TAAGCCGCATGGACCGGTTTTCCCGGTAATCCGTATTTGGG (site TAAGCCGCTCC) | 0.0145 |
| CATTCCACATGGACCGGTTTTCCCGGTAATCCGTATTTGCA (site CATTCCACTTG) | 1.95 |
| CCGTTTACATGGACCGGTTTTCCCGGTAATCCGTATTTGGT (site CCGTTTACTAT) | 0 |
| CCTAATACATGGACCGGTTTTCCCGGTAATCCGTATTTGGC (site CCTAATACTGG) | 0 |
| CTGAACCCATGGACCGGTTTTCCCGGTAATCCGTATTTGTT (site CTGAACCCTAA) | 0.285 |
| CGTAAAGCATGGACCGGTTTTCCCGGTAATCCGTATTTGAT (site CTTAAAGCTAT) | 0 |
| TAGACTACATGGACCGGTTTTCCCGGTAATCCGTATTTGCA (site TAGAGTACTTG) | 0.0124 |
| GTGTAGGCATGGACCGGTTTTCCCGGTAATCCGTATTTGGC (site ATGTAGGCTGC) | 1.98 |
| GTCAGATCATGGACCGGTTTTCCCGGTAATCCGTATTTGCG (site GTCAGATCTCG) | 1.77 |
| GTAGTCGCATGGACCGGTTTTCCCGGTAATCCGTATTTGGG (site GTAGTCGCTCG) | 0.0493 |
| CAGCCTTCATGGACCGGTTTTCCCGGTAATCCGTATTTGGT (site CAGCCTTCTAC) | 0.949 |
| CAACTCACATGGACCGGTTTTCCCGGTAATCCGTATTTGGG (site CAAATCACTCC) | 0.0187 |
| GGCTAGGCATGGACCGGTTTTCCCGGTAATCCGTATTTGGT (site AGCTAGGCTAC) | 0.208 |
| CTGGAAACATGGACCGGTTTTCCCGGTAATCCGTATTTGCA (site CTGGAAACTTC) | 0 |
| TCTAAAGCATGGACCGGTTTTCCCGGTAATCCGTATTTGAT (site ACTAAAGCTAT) | 0 |
| AATGTGCCATGGACCGGTTTTCCCGGTAATCCGTATTTGAC (site AATGTGTCTGT) | 0 |
| GAATGAGCATGGACCGGTTTTCCCGGTAATCCGTATTTGGG (site TAATGAGCTCC) | 0.317 |
| TTTGCGGCATGGACCGGTTTTCCCGGTAATCCGTATTTGCT (site TTTGCGGCTCG) | 0.0133 |

Reference: the supplement of paper PMC11208160
